Test results: patent US20240150377A1, “MODULATORS OF CYSTIC FIBROSIS TRANSMEMBRANE CONDUCTANCE REGULATOR” (VERTEX PHARMACEUTICALS INCORPORATED, priority 2020, published 2024)
pEC50: −log10 of the molar value. Read-outs that look alike come from different tables or passages of the source. Values belong to the compound of their own block, whether it stands above or below them.

Biological target: T1, CFTR (Homo sapiens, UniProt P13569, DEL508-508)
T1 construct: endogenous in cells; host or cells: primary human bronchial epithelial cells from CF subjects (F508del/MF-HBE), differentiated at air-liquid interface
T1 sequence (P13569 with tags, fused parts or gaps DEL508-508): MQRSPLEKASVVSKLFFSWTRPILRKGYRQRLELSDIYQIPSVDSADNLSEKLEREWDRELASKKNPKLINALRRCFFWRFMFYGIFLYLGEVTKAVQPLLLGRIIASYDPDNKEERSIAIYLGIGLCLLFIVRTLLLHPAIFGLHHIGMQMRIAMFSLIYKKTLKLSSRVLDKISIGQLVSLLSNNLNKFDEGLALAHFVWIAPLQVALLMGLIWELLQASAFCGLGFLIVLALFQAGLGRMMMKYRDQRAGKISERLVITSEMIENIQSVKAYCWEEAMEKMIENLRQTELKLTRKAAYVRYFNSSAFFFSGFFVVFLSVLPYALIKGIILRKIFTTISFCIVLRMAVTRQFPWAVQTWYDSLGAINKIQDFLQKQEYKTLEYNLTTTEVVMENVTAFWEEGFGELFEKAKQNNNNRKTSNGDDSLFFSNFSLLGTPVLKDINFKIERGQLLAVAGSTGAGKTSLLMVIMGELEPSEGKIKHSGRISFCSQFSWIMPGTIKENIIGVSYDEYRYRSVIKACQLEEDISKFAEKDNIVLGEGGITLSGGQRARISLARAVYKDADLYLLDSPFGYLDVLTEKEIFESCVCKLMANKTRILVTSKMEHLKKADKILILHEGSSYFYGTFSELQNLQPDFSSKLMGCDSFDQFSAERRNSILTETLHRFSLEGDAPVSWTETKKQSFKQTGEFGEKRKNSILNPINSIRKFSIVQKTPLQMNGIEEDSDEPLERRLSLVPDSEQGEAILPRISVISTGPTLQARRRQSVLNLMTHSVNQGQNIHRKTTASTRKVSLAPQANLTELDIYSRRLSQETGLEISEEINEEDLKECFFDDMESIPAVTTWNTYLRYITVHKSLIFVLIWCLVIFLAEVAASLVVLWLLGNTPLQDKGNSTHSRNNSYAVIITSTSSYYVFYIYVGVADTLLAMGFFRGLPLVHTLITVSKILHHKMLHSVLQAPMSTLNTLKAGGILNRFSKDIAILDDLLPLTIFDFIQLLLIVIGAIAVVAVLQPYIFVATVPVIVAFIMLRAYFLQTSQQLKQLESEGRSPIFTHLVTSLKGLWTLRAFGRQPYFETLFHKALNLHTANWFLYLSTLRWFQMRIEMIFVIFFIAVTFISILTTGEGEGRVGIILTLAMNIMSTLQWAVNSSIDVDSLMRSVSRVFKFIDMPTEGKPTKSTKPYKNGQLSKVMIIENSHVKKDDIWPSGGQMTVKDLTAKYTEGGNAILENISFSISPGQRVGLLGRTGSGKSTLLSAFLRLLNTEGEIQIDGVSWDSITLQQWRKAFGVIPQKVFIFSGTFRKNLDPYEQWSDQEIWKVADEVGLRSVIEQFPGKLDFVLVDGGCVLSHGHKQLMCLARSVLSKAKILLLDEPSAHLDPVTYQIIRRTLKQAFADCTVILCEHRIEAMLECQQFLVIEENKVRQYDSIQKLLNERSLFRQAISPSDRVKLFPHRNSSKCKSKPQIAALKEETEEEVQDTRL
Test: HBE assay: Ussing chamber assay of CFTR-mediated short-circuit currents
Format: cell-based
Settings: for pEC50: read-out: HBE EC50
Procedure, shortened: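 CFTR-mediated Isc (μA/cm²) equals the peak response to apical 20 μM forskolin minus the residual after a 20 μM each BPO/GlyH-101/CFTR inhibitor 172 cocktail, recorded in Ussing chambers at Vhold 0 mV, 37 °C, pH 7.4, with 30 μM apical amiloride. Cells were F508del/MF HBE cultures preincubated 18-24 h with corrector (concentration range or 10 μM) plus 1 μM ivacaftor in 20% human serum.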

[1] = HBE assay, read-out: HBE Max activity (%)
[2] = Table 10, read-out: HBE Max activity (%)
[3] = Table 11, read-out: HBE Max Activity (%)
[4] = Table 12, at 10 μM, read-out: HBE Activity at 10 μM (%)
[5] = Table 12, read-out: HBE Max Activity (%)
[6] = Table 13, at 10 μM, read-out: HBE Activity at 10 μM (%)
[7] = Table 10, at 10 μM, read-out: HBE activity at 10 (μM) (%)

pEC50 (HBE assay): > 6.00
Emax [1]: > 60%
Compound: Cc1cccc(C)c1-c1cc2nc(n1)NS(=O)(=O)c1cccc(c1)C(=O)N(Cc1cncc(N3CCCC3C)n1)[C@H](CC(C)(C)C)CO2 (stereo in doubt) [Compound 1366]

pEC50 (Table 10): > 6.00
Emax [2]: > 60%
Compound: COc1ccnc(CN2C(=O)c3cccc(c3)S(=O)(=O)Nc3nc(cc(-c4c(C)cccc4C)n3)OC[C@H]2CC(C)(C)C)n1 [Compound 773]

pEC50 (Table 11): > 6.00
Emax [3]: > 60%
Compound: Cc1cccc(C)c1-c1cc2nc(n1)NS(=O)(=O)c1cccc(c1)C(=O)N(Cc1ncccc1NCC(C)(C)C)[C@H](CC(C)(C)C)CO2 [Compound 724]

pEC50 (HBE assay): > 6.00
Emax [1]: > 60%
Compound: Cc1cccc(C)c1-c1cc2nc(n1)NS(=O)(=O)c1cccc(c1)C(=O)N(Cc1cccc(N(C)C3CCOC3)n1)[C@H](CC(C)(C)C)CO2 (stereo partly drawn) [Compound 1347]

pEC50 (Table 10): > 6.00
Emax [2]: > 60%
Compound: Cc1cccc(C)c1-c1cc2nc(n1)NS(=O)(=O)c1cccc(c1)C(=O)N(CC1CCC(N3CCOCC3)CC1)[C@H](CC(C)(C)C)CO2 (single isomer, unassigned) [Compound 154]

pEC50 (Table 10): > 6.00
Compound: Cc1cccc(C)c1-c1cc2nc(n1)NS(=O)(=O)c1cccc(c1)C(=O)N(CC1CCC(O)(C(F)(F)F)CC1)[C@H](CC(C)(C)C)CO2 (stereo partly drawn) [Compound 904]

activation at 10 µM [4]: > 600%
Compound: Cc1cccc(C)c1-c1cc2nc(n1)NS(=O)(=O)c1cccc(c1)C(=O)N(CC(=O)N(C)CC1CCCC1)[C@H](CC(C)(C)C)CO2 [Compound 229]

pEC50 (Table 12): > 6.00
Emax [5]: > 60%
Compound: Cc1cccc(C)c1-c1cc2nc(n1)NS(=O)(=O)c1cccc(c1)C(=O)N(Cc1cnc(OC(C)C)nc1)[C@H](CC(C)(C)C)CO2 [Compound 270]

activation at 10 µM [6]: > 600%
Compound: Cc1cccc(C)c1-c1cc2nc(n1)NS(=O)(=O)c1cccc(c1)C(=O)N(Cc1nc(C3CCC3)no1)[C@H](CC(C)(C)C)CO2 [Compound 1130]

pEC50 (Table 11): > 6.00
Emax [3]: > 60%
Compound: Cc1cccc(C)c1-c1cc2nc(n1)NS(=O)(=O)c1cccc(c1)C(=O)N(Cc1cccc(C3CCCCO3)n1)[C@H](CC(C)(C)C)CO2 (stereo partly drawn) [Compound 603]

pEC50 (Table 12): > 6.00
Emax [5]: > 60%
Compound: Cc1cccc(C)c1-c1cc2cc(n1)NS(=O)(=O)c1cccc(c1)C(=O)N(Cc1cccc(N3CCC[C@H]3C)n1)[C@H](CC(C)(C)C)CO2 [Compound 526]

activation at 10 µM [6]: > 600%
Compound: Cc1cccc(C)c1-c1cc2nc(n1)NS(=O)(=O)c1cccc(c1)C(=O)N(CC(=O)N(C)CCN1CCOCC1)[C@H](CC(C)(C)C)CO2 [Compound 226]

activation at 10 µM [6]: > 600%
Compound: Cc1cccc(C)c1-c1cc2nc(n1)NS(=O)(=O)c1cccc(c1)C(=O)N(Cc1nccc(C(C)C(C)C)n1)[C@H](CC(C)(C)C)CO2 (stereo partly drawn) [Compound 538]

pEC50 (Table 11): 5.52 to 6.00
Emax [3]: > 60%
Compound: CCN(C)c1cccc(CN2C(=O)c3cccc(c3)S(=O)(=O)Nc3nc(cc(-c4c(C)cccc4C)n3)OC[C@H]2CC(C)(C)C)n1 [Compound 715]

activation at 10 µM (HBE assay, 10 μM, read-out: HBE Activity at 10 μM (%)): > 60%
Compound: COC[C@H]1COCCN1c1cccc(CN2C(=O)c3cccc(c3)S(=O)(=O)Nc3nc(cc(-c4c(C)cccc4C)n3)OC[C@H]2CC(C)(C)C)n1 [Compound 1399]

Emax [2]: > 60%
Compound: CC(C)c1cccc(C(C)C)c1-c1cc2nc(n1)NS(=O)(=O)c1cccc(c1)C(=O)N(Cc1ncc(N3CCOCC3)cn1)[C@H](CC(C)(C)C)CO2 [Compound 830]

pEC50 (HBE assay): > 6.00
Emax [1]: > 60%
Compound: Cc1cccc(C)c1-c1cc2nc(n1)NS(=O)(=O)c1cccc(c1)C(=O)N(Cc1ncc(OC3CC4(CC4)C3)cn1)[C@H](CC1CC1)CO2 [Compound 1478]

activation at 10 µM [7]: > 60%
Emax [2]: > 60%
Compound: Cc1ccnc(CN2C(=O)c3cccc(c3)S(=O)(=O)Nc3nc(cc(-c4c(C)cccc4C)n3)OC[C@H]2CC(C)(C)C)n1 [Compound 479]

pEC50 (HBE assay): > 6.00
Emax [1]: > 60%
Compound: CCOc1cnc(CN2C(=O)c3cccc(c3)S(=O)(=O)Nc3nc(cc(-c4c(C)cccc4C)n3)OC[C@H]2CC2CCC2)nc1 [Compound 1487]

activation at 10 µM [4]: > 600%
Compound: Cc1cccc(C)c1-c1cc2nc(n1)NS(=O)(=O)c1cccc(c1)C(=O)N(Cc1nc(N(C)C(C)C)cc(C(F)(F)F)n1)[C@H](CC(C)(C)C)CO2 [Compound 326]

activation at 10 µM [7]: < 300%
Compound: Cc1cccc(C)c1-c1cc2nc(n1)NS(=O)(=O)c1cccc(c1)C1Oc3cnc4ccccc4c3CN1[C@H](CC(C)(C)C)CO2 (stereo partly drawn) [Compound 752]

pEC50 (Table 11): > 6.00
Emax [3]: > 60%
Compound: CCc1cccc(CN2C(=O)c3cccc(c3)S(=O)(=O)Nc3nc(cc(-c4c(C)cccc4C)n3)OC[C@H]2CC(C)(C)C)n1 [Compound 730]

pEC50 (Table 12): > 6.00
Emax [5]: > 60%
Compound: Cc1cccc(C)c1-c1cc2nc(n1)NS(=O)(=O)c1cccc(c1)C(=O)N(Cc1ncc(N3CC[C@@](C)(O)C3)cn1)[C@H](CC(C)(C)C)CO2 [Compound 542]

pEC50 (Table 11): 5.52 to 6.00
Emax [3]: > 60%
Compound: Cc1cccc(C)c1-c1cc2nc(n1)NS(=O)(=O)c1cccc(c1)C(=O)N(Cc1ccc(N3CCC(C)(C)C3)cn1)[C@H](CC(C)(C)C)CO2 [Compound 609]

pEC50 (Table 12): > 6.00
Emax [5]: > 60%
Compound: Cc1cccc(C)c1-c1cc2nc(n1)NS(=O)(=O)c1cccc(c1)C(=O)N(Cc1cccc(-c3ncccn3)n1)[C@H](CC(C)(C)C)CO2 [Compound 590]

pEC50 (HBE assay): > 6.00
Emax [1]: > 60%
Compound: Cc1cccc(C)c1-c1cc2nc(n1)NS(=O)(=O)c1cccc(c1)C(=O)N(Cc1ncc(OC3CC(C)(C)C3)cn1)[C@H](CC(C)(C)C)CO2 [Compound 1422]

pEC50 (Table 12): > 6.00
Emax [5]: > 60%
Compound: COC1CN(c2cccc(CN3C(=O)c4cccc(c4)S(=O)(=O)Nc4nc(cc(-c5c(C)cccc5C)n4)OC[C@H]3CC(C)(C)C)n2)C(C)(C)C1 (stereo partly drawn) [Compound 876]

pEC50 (HBE assay): > 6.00
Emax [1]: > 60%
Compound: Cc1cccc(C)c1-c1cc2nc(n1)NS(=O)(=O)c1cccc(c1)C(=O)N(Cc1cncc(N3CCC[C@H]3COC(C)C)n1)[C@H](CC(C)(C)C)CO2 [Compound 1494]

Emax [2]: > 60%
Compound: Cc1cccc(C)c1-c1cc2nc(n1)NS(=O)(=O)c1cccc(c1)C(=O)N(Cc1ccc(N3CCN(C)CC3)cn1)[C@H](CC(C)(C)C)CO2 [Compound 478]

activation at 10 µM [7]: > 60%
Compound: Cc1cccc(C)c1-c1cc2nc(n1)NS(=O)(=O)c1cccc(c1)C(=O)N(Cc1cnn(C)c1)[C@H](CC(C)(C)C)CO2 [Compound 826]

activation at 10 µM [4]: > 600%
Compound: Cc1cccc(C)c1-c1cc2nc(n1)NS(=O)(=O)c1cccc(c1)C(=O)N(Cc1nc(C(C)(C)C)co1)[C@H](CC(C)(C)C)CO2 [Compound 167]

pEC50 (Table 10): > 6.00
Emax [2]: > 60%
Compound: Cc1cccc(C)c1-c1cc2nc(n1)NS(=O)(=O)c1cccc(c1)C(=O)N([C@@H](C)c1ccc(-c3c(C)n[nH]c3C)cc1)[C@H](CC(C)(C)C)CO2 [Compound 293]

activation at 10 µM [6]: 30 to 60%
Compound: Cc1cccc(C)c1-c1cc2nc(n1)NS(=O)(=O)c1cccc(c1)C(=O)N(Cc1ccc(N3CCC(C(=O)O)CC3)cn1)[C@H](CC(C)(C)C)CO2 [Compound 251]

activation at 10 µM [7]: > 60%
Compound: Cc1cccc(C)c1-c1cc2nc(n1)NS(=O)(=O)c1cccc(c1)C(=O)N(CC1CCCCC1)[C@H](CC(C)(C)C)CO2 [Compound 832]

activation at 10 µM [4]: > 600%
Compound: Cc1cccc(C)c1-c1cc2nc(n1)NS(=O)(=O)c1cccc(c1)C(=O)N(Cc1cccc(N3CCC[C@@]3(C)C(=O)O)n1)[C@H](CC(C)(C)C)CO2 [Compound 278]

activation at 10 µM [7]: > 60%
Emax [2]: > 60%
Compound: Cc1cccc(C)c1-c1cc2nc(n1)NS(=O)(=O)c1cccc(c1)C(=O)N(Cc1cnn(C(C)C)c1)[C@H](CC(C)(C)C)CO2 [Compound 823]

pEC50 (Table 11): > 6.00
Emax [3]: > 60%
Compound: Cc1cccc(C)c1-c1cc2nc(n1)NS(=O)(=O)c1cccc(c1)C(=O)N(CC1CN(CC(C)(C)C)CCO1)[C@H](CC(C)(C)C)CO2 (stereo partly drawn) [Compound 712]

pEC50 (Table 13): > 6.00
Emax (Table 13, read-out: HBE Max Activity (%)): > 60%
Compound: Cc1cccc(C)c1-c1cc2nc(n1)NS(=O)(=O)c1cccc(c1)C(=O)N(Cc1ncc(N3CCSCC3)cn1)[C@H](CC(C)(C)C)CO2 [Compound 1147]

pEC50 (Table 10): > 6.00
Emax [2]: > 60%
Compound: Cc1cccc(C)c1-c1cc2nc(n1)NS(=O)(=O)c1cccc(c1)C(=O)N(Cc1ncccc1-c1c(C)n[nH]c1C)[C@H](CC(C)(C)C)CO2 [Compound 301]

pEC50 (HBE assay): > 6.00
Emax [1]: > 60%
Compound: Cc1cccc(C)c1-c1cc2nc(n1)NS(=O)(=O)c1cccc(c1)C(=O)N(Cc1cncc(NC3CCOC3)n1)[C@H](CC(C)(C)C)CO2 (stereo partly drawn) [Compound 1353]

activation at 10 µM [4]: > 600%
Compound: Cc1cc(N(C)C(C)C)nc(CN2C(=O)c3cccc(c3)S(=O)(=O)Nc3nc(cc(-c4c(C)cccc4C)n3)OC[C@H]2CC(C)(C)C)n1 [Compound 323]

pEC50 (Table 11): > 6.00
Emax [3]: > 60%
Compound: COc1cnc(CN2C(=O)c3cccc(c3)S(=O)(=O)Nc3nc(cc(-c4c(C)cccc4C)n3)OC[C@H]2CC(C)(C)C)nc1C [Compound 611]

activation at 10 µM [6]: > 600%
Compound: Cc1cccc(C)c1-c1cc2nc(n1)NS(=O)(=O)c1cccc(c1)C(=O)N(CC(=O)N1CCC[C@@H](C)C1)[C@H](CC(C)(C)C)CO2 [Compound 184]

pEC50 (Table 12): > 6.00
Emax [5]: > 60%
Compound: Cc1cccc(C)c1-c1cc2nc(n1)NS(=O)(=O)c1cccc(c1)C(=O)N(Cc1cccc(N3CCCC34CCC4)n1)[C@H](CC(C)(C)C)CO2 [Compound 562]

activation at 10 µM [6]: > 600%
Compound: COC(=O)c1ccc(CN2C(=O)c3cccc(c3)S(=O)(=O)Nc3nc(cc(-c4c(C)cccc4C)n3)OC[C@H]2CC(C)(C)C)nc1 [Compound 248]
